Assay results published in US20210309658A1, “ARYL COMPOUNDS FOR THE TREATMENT AND PROPHYLAXIS OF BACTERIAL INFECTION” (Hoffmann-La Roche Inc., priority 2018, published 2021).
≈ marks a conversion by molar mass, not a printed value.

How the values were obtained:
E. coli (BW25113) = assay: 50% growth inhibitory concentration (IC50) determination assay, E. coli; type: cell-based; conditions: Escherichia coli, BW25113; growth inhibition, Iso-Sensitest broth, OD 600 nm over 16 h; read-out: IC50 (μM) E. coli K12 BW25113
Procedure: (§1) The in vitro antimicrobial activity of the compounds against E. coli (BW25113, obtained from Coli Genetic Stock Center, #7636) and K. pneumoniae (ATCC10031) was determined according to the following procedure:
(§2) The assay used a 10-points Iso-Sensitest broth medium to measure quantitatively the in vitro activity of the compounds against E. coli BW25113 and K. pneumoniae ATCC 10031.
(§3) Stock compounds in DMSO were serially two-fold diluted (range from 50 to 0.097 μM final concentration) in 384 wells microtiter plates and inoculated with 49 μL the bacterial suspension in Iso-Sensitest broth medium to have a final cell concentration of ˜5×10^5 CFU/mL in a final volume/well of 50 μL/well. Microtiter plates were incubated at 35±2° C.
(§4) Bacterial cell growth was determined with the measurement of optical density at λ=600 nm each 20 minutes over a time course of 16 h.
(§5) Growth inhibition was calculated during the logarithmic growth of the bacterial cells with determination of the concentration inhibiting 50% (IC50) of the growth.

[1] = Lyophilisation Solubility Assay (LYSA); type: physicochemical; conditions: aqueous buffer, thermodynamic from solid; 0.05 M phosphate buffer, pH 6.5; * = detection limit
Procedure: The solubility of compounds of present invention was assessed by LYSA assay. Samples were prepared in duplicate from 10 mM DMSO stock solutions (20 μL) diluted in 30 μL pure DMSO. After evaporation of DMSO with a centrifugal vacuum evaporator, the residue was dissolved in 0.05 M phosphate buffer (150 μL, pH 6.5), stirred for one hour and shook for two hours. After one night, the solution was filtered using a microtiter filter plate. Then the filtrate and its 1/10 dilution were analyzed by HPLC-UV. In addition a four-point calibration curve was prepared from the 10 mM stock solutions and used for the solubility determination of the compounds.

[2] = tested on: K. pneumoniae (ATCC10031); assay: 50% growth inhibitory concentration (IC50) determination assay, K. pneumoniae; type: cell-based; conditions: Klebsiella pneumoniae, ATCC10031; growth inhibition, Iso-Sensitest broth, OD 600 nm over 16 h; * = detection limit; read-out: IC50 (μM) K. pneumoniae ATCC10031
Procedure: as §1, §2, §3, §4, §5

[3] = Cytotoxicity assay (HepG2, CellTiter-Blue); type: cell-based; conditions: human; HepG2 cells, 3 days treatment; * = detection limit
Procedure: The cytotoxicity of compounds of present invention was assessed by HepG2 assay. HepG2 cells (ATCC HB-8065™) were seeded into 96-well plates (1.2×10^4 cells per well) and treated with compounds for 3 days, cell viability was measured at day 3 post compound treatment using the CellTiter-Blue® Cell Viability Assay (Promega, Cat. No. G8082). 20 μL of Cell titer blue buffer were added to each well of the cells, incubated for 3 hours at 37° C., and the fluorescence value was measured by a plate reader (Molecular Device SpectraMax M2). The CC50 value of each compound is plotted with GraphPad Prism using four parameter logistic equation.

E. coli (ATCC 25922) = assay: Minimal Inhibitory Concentration (MIC) assay; type: cell-based; conditions: Escherichia coli, ATCC25922; CAMHB, 20 hours at 35° C.; read-out: MIC (μg/mL) E. coli ATCC 25922
Procedure: The in vitro potency of compounds to inhibit E. coli (ATCC 25922) growth was assessed by MIC (Minimal Inhibitory Concentration) assay. Samples were prepared from 10 mM DMSO stock solutions. After serial 2-fold dilution in DMSO in a master plate (Greiner, Cat No: 651201), 180 μL sterile distilled water was added to 20 μL each aliquot of the samples. Then 10 μL diluted compounds were transferred into a new assay plate (Costar, 3599).
The growth medium […] Mueller Hinton Broth (CAMHB) was prepared by adding the 20 mg per liter CaCl2 and 20 mg per liter MgCl2 into the MHB medium (Jianglai Company, sterilized).
Vials of each of the test microorganisms were maintained frozen in the vapor phase of a liquid nitrogen freezer. Took out the bacteria E. coli ATCC 25922 (KWIKSTIK, 0335K) from liquid nitrogen freezer, thawed it in room temperature, and diluted the bacterial in the CAMHB medium to achieve a final inoculum of 5×10^5 CFU/mL, 90 μL CAMHB with bacteria was dispensed to the assay plate and pipetted 5 times.
Then the assay plates were incubated for 20 hours at 35° C. in ambient air. Following incubation, the MIC (μg/mL), the lowest concentration of drug that inhibits visible growth of the microorganism was read and recorded throw the microscope.

SMILES | IC50 (E. coli (BW25113)) [µM] | solubility thermodynamic [1] [µg/mL] | IC50 [2] [µM] | CC50 at 3 days [3] [µM] | MIC (E. coli (ATCC 25922)) [µg/mL]
CCNc1cc(F)cc2c1[nH]c1ncc(-c3cncc(CN)c3)c(-n3ccc(C(F)(F)F)n3)c12 [Example 1.45, 3-[5-(Aminomethyl)-3-pyridyl]-N-ethyl-6-fluoro-4-[3-(trifluoromethyl)pyrazol-1-yl]-9H-pyrido[2,3-b]indol-8-amine] | 2.04 | 16 (≈ 34.1 µM) | ≤ 0.098 |  | 
CCNc1cc(F)cc2c1[nH]c1ncc(-c3cnc(OC4CCNCC4)nc3)c(-n3ccc(C(F)(F)F)n3)c12 [Example 1.53, N-ethyl-6-fluoro-3-[2-(4-piperidyloxy)pyrimidin-5-yl]-4-[3-(trifluoromethyl)pyrazol-1-yl]-9H-pyrido[2,3-b]indol-8-amine] | 1.29 | 21 (≈ 38.9 µM) | 0.121 |  | 
CNc1cc(F)cc2c1[nH]c1ncc(-c3cnc(C4(C(=O)O)CC4)nc3)c(-n3ccc(C(F)(F)F)n3)c12 [Example 2.02, 1-[5-[6-Fluoro-8-(methylamino)-4-[3-(trifluoromethyl)pyrazol-1-yl]-9H-pyrido[2,3-b]indol-3-yl]pyrimidin-2-yl]cyclopropanecarboxylic acid] | 1.67 | 148 (≈ 289 µM) | 0.254 | 62.6 | 
CNc1c(F)c(F)cc2c1[nH]c1ncc(-c3cncc(C#N)c3)c(-n3cc(CN)c(C(F)(F)F)n3)c12 [Example 1.49, 5-[4-[4-(Aminomethyl)-3-(trifluoromethyl)pyrazol-1-yl]-6,7-difluoro-8-(methylamino)-9H-pyrido[2,3-b]indol-3-yl]pyridine-3-carbonitrile] | 0.698 | 14 (≈ 28.1 µM) | 0.098 | 12.8 | 0.359 (≈ 0.72 µM)
CCNc1cc(F)cc2c1[nH]c1ncc(-c3cnc(NC4CCNCC4)nc3)c(-n3ccc(C(F)(F)F)n3)c12 [Example 1.10, N-Ethyl-6-fluoro-3-[2-(4-piperidylamino)pyrimidin-5-yl]-4-[3-(trifluoromethyl)pyrazol-1-yl]-9H-pyrido[2,3-b]indol-8-amine] |  | 7.6 (≈ 14.1 µM) |  |  | 
CCNc1cc(F)cc2c1[nH]c1ncc(-c3cnc(CN)nc3)c(-n3ccc(C(F)(F)F)n3)c12 [Example 1.46, 3-[2-(Aminomethyl)pyrimidin-5-yl]-N-ethyl-6-fluoro-4-[3-(trifluoromethyl)pyrazol-1-yl]-9H-pyrido[2,3-b]indol-8-amine] | 0.77 | 23 (≈ 48.9 µM) | ≤ 0.098 | 27.4 | 
CCNc1cc(F)cc2c1[nH]c1ncc(-c3cncc(Cc4n[nH]c(=O)o4)c3)c(-n3ccc(C(F)(F)F)n3)c12 [Example 6.01, 5-[[5-[8-(ethylamino)-6-fluoro-4-[3-(trifluoromethyl)pyrazol-1-yl]-9H-pyrido[2,3-b]indol-3-yl]-3-pyridyl]methyl]-3H-1,3,4-oxadiazol-2-one] | 0.827 |  | 0.441 | 11.4 | 0.731 (≈ 1.36 µM)
CCNc1cc(F)cc2c1[nH]c1ncc(-c3cncc(C#N)c3)c(-n3cc(CN)c(C(F)(F)F)n3)c12 [Example 1.26, 5-[4-[4-(Aminomethyl)-3-(trifluoromethyl)pyrazol-1-yl]-8-(ethylamino)-6-fluoro-9H-pyrido[2,3-b]indol-3-yl]pyridine-3-carbonitrile] | 0.374 | 32.5 (≈ 65.7 µM) | ≤ 0.098 |  | 0.618 (≈ 1.25 µM)
CNc1cc(F)cc2c1[nH]c1nc(Oc3cnc(C)nc3)nc(N3C[C@H]4C[C@@H]3C[C@H]4N)c12 [GP-6, reference compound] | 0.17 | < 1 | ≤ 0.098 | 5.6 | 0.127 (≈ 0.292 µM)
CCNc1cc(F)cc2c1[nH]c1ncc(-c3cnc(OC)nc3)c(-n3nc(C#N)c4c3CNCC4)c12 [Example 1.39, 1-[8-(Ethylamino)-6-fluoro-3-(2-methoxypyrimidin-5-yl)-9H-pyrido[2,3-b]indol-4-yl]-4,5,6,7-tetrahydropyrazolo[3,4-c]pyridine-3-carbonitrile] | 2.37 | 42 (≈ 86.9 µM) | ≤ 0.098 | 49 | 
CCNc1cc(F)cc2c1[nH]c1ncc(-c3cnc(C4(C(=O)O)CC4)nc3)c(-n3ccc(C(F)(F)F)n3)c12 [Example 2.01, 1-[5-[8-(Ethylamino)-6-fluoro-4-[3-(trifluoromethyl)pyrazol-1-yl]-9H-pyrido[2,3-b]indol-3-yl]pyrimidin-2-yl]cyclopropanecarboxylic Acid] |  | 67 (≈ 128 µM) |  | 38.6 | 
CCNc1cc(F)cc2c1[nH]c1ncc(-c3cnc(C(C)O)nc3)c(-n3ccc(C(F)(F)F)n3)c12 (centres unmarked) [Example 1.54, 1-[5-[8-(ethylamino)-6-fluoro-4-[3-(trifluoromethyl)pyrazol-1-yl]-9H-pyrido[2,3-b]indol-3-yl]pyrimidin-2-yl]ethanol] | 1.12 |  | 0.111 | 12.4 | 0.284 (≈ 0.585 µM)
CCNc1cc(F)cc2c1[nH]c1ncc(-c3cnc(NCC(C)(C)C(=O)O)nc3)c(-n3ccc(C(F)(F)F)n3)c12 [Example 2.05, 3-[[5-[8-(Ethylamino)-6-fluoro-4-[3-(trifluoromethyl)pyrazol-1-yl]-9H-pyrido[2,3-b]indol-3-yl]pyrimidin-2-yl]amino]-2,2-dimethyl-propanoic acid] |  | 24 (≈ 43.1 µM) |  | 27.6 | 
CCNc1cc(F)cc2c1[nH]c1ncc(-c3cnc(NC4CCNC4)nc3)c(-n3ccc(C(F)(F)F)n3)c12 (centres unmarked) [Example 1.24, N-Ethyl-6-fluoro-3-[2-(pyrrolidin-3-ylamino)pyrimidin-5-yl]-4-[3-(trifluoromethyl)pyrazol-1-yl]-9H-pyrido[2,3-b]indol-8-amine] |  | 8.3 (≈ 15.8 µM) |  | 11.8 | 
